Patent US10596127B2, “Composition for reducing the frequency of urination, method of making and use thereof” (WELLESLEY PHARMACEUTICALS, LLC, priority 2013, dated 2020)

Tests used:
[1] = Serum levels of analgesic in human blood after oral therapeutic doses; type: in vivo; details: adult humans, conversion of mg/L by molecular weight
Source text: Table 3 summarizes the results of several studies that measured serum levels of analgesic after oral therapeutic doses in adult humans. […] Therefore, the doses of analgesic tested in vitro in Table 2 cover the range of concentrations achievable in vivo in humans.

[2] = test system: COX2 expression by mouse bladder cells; test: Cell-based ELISA of total COX2 in mouse bladder cells; details: for induction of COX2 responses by analgesic alone: 5 μM or 50 μM, 24-hour cultures, no stimulus; for effect on the effect of LPS on COX2 levels: LPS (1 μg/ml), analgesic at either 5 μM or 50 μM
Description: Bladder cells were removed from euthanized animals C57BL/6 mice (8-12 weeks old) and cells were isolated by enzymatic digestion followed by purification on a Percoll gradient. Briefly, bladders from 10 mice were minced with scissors to fine slurry in 10 ml of digestion buffer (RPMI 1640, 2% fetal bovine serum, 0.5 mg/ml collagenase, 30 μg/ml DNase). Bladder slurries were enzymatically digested for 30 minutes at 37° C. Undigested fragments were further dispersed through a cell-trainer. The cell suspension was pelleted and added to a discontinue 20%, 40% and 75% Percoll gradient for purification on mononuclear cells. Each experiment used 50-60 bladders.
After washes in RPMI 1640, bladder cells were resuspended RPMI 1640 supplemented with 10% fetal bovine serum, 15 mM HEPES, 2 mM L-glutamine, 100 U/ml penicillin, and 100 μg/ml of streptomycin and seeded in clear-bottom black 96-well cell culture microculture plates at a cell density of 3×10^4 cells per well in 100 μl. Cells were cultured at 37° C. in a 5% CO2 atmosphere.
Bladder cells were treated with analgesic solutions (50 well) either alone or together with carbachol (10-Molar, 50 μl/well), as an example of non-inflammatory stimuli, or lipopolysaccharide (LPS) of Salmonella typhimurium (1 μg/ml, 50 μl/well), as an example of […] stimuli. When no other effectors were added to the cells, 50 μl of RPMI 1640 without fetal bovine serum were added to the wells to adjust the final volume to 200 μl.
After 24 hours of culture, 150 μl of culture supernatants were collected, spun down for 2 min at 8,000 rpm at 4° C. to remove cells and debris and stored at −70° C. for analysis of Prostaglandin E2 (PGE2) responses by ELISA. Cells were fixed, permeabilized and blocked for detection of Cyclooxygenase-2 (COX2) using a fluorogenic substrate. In selected experiment cells were stimulated 12 hours in vitro for analysis of COX2 responses
COX2 responses were analyzed by a Cell-Based ELISA using Human/mouse total COX2 immunoassay (R&D Systems), following the instructions of the manufacturer. Briefly, after cells fixation and permeabilization, a mouse anti-total COX2 and a rabbit anti-total GAPDH were added to the wells of the clear-bottom black 96-well cell culture microculture plates. After incubation and washes, an HRP-conjugated anti-mouse IgG and an AP-conjugated anti-rabbit IgG were added to the wells. Following another incubation and set of washes, the HRP- and AP-fluorogenic substrates were added. Finally, a Victor® V multilabel plate reader (PerkinElmer) was used to read the fluorescence emitted at 600 nm (COX2 fluorescence) and 450 nm (GAPDH fluorescence). Results are expressed as relative levels of total COX2 as determined by relative fluorescence unit (RFUs) and normalized to the housekeeping protein GAPDH.

[3] = Inhibition of the urge to urinate in volunteer subjects; type: in vivo, human
Source text: Twenty volunteer subjects, both male and female were enrolled, each of which experienced premature urge or desire to urinate, interfering with their ability to sleep for a sufficient period of time to feel adequately rested. […] At least 14 subjects reported that they were able to rest better because they were not being awakened as frequently by the urge to urinate.

[4] = LPS (1 μg/ml) plus analgesic 5 μM, LPS alone 420 ± 26, unstimulated 158 ± 18
[5] = LPS (1 μg/ml) plus analgesic 50 μM, LPS alone 420 ± 26, unstimulated 158 ± 18

SMILES	Maximum serum levels after oral therapeutic doses [1] [µM]	induction of COX2 responses by analgesic alone [2]	Total COX2 levels (Normalized RFUs) [2, 4] [Normalized RFUs]	Total COX2 levels (Normalized RFUs) [2, 5] [Normalized RFUs]	effect on the effect of LPS on COX2 levels [2]	benefit of less frequent urges to urinate after several weeks of nightly use ([3]; several subjects)	benefit after several days of abstaining from taking the dosages ([3]; subjects who had lost the benefit)	subjects who reported that they were able to rest better because they were not being awakened as frequently by the urge to urinate ([3]; twenty volunteer subjects, 400-800 mg as a single dose prior to bedtime)	Total COX2 levels (Normalized RFUs) ([2]; stimulus alone, no analgesic (LPS 1 μg/ml, Carbachol (mM)), unstimulated 158 ± 18)	Total COX2 levels (Normalized RFUs) ([2]; stimulus alone, no analgesic (LPS 1 μg/ml, Carbachol (mM)), unstimulated 158 ± 18, listed as carbachol)
COc1ccc2cc([C@H](C)C(=O)O)ccc2c1 [Naproxen]	≤ 260	none of the analgesics tested induced COX2 responses	284 ± 11	279 ± 23	suppress					
CC(C)Cc1ccc(C(C)C(=O)O)cc1 (stereo not drawn) [Ibuprofen, ibuprofen]						no longer being realized	return of the benefit	At least 14 subjects		
CC(=O)Oc1ccccc1C(=O)O [Aspirin, Acetylsalicylic acid]		none of the analgesics tested induced COX2 responses	240 ± 17	258 ± 21	suppress					
CC(=O)Nc1ccc(O)cc1 [Acetaminophen, N-acetyl-para-aminophenol]		none of the analgesics tested induced COX2 responses	275 ± 12	243 ± 15	suppress					
C[N+](C)(C)CCOC(N)=O [Carbachol, carbachol]									149 ± 21	no significant effect
